According to article PMC10384657 (Virus Research, 2023):

Columns and labels:
[1] = system: MPER25c peptide (S2 membrane proximal region derived); format: binding, SARS-CoV-2
[2] = system: Vero E6 cells; details: 72 h
[3] = system: Vero E6/TMPRSS2; details: 72 h
[4] = system: SARS-CoV-2

Row | Compound | fold lower binding activity to immobilized MPER25c than PN19 [1] | CC50 (mean ± SD) [2] | CC50 (mean ± SD) [3] | binding to immobilized MPER25c (in words) [1] | ka [1] | fold reduction of the expected IC50 value of PN19 produced by MPER25 [4]
1 | CC[C@H](C)[C@H](NC(=O)[C@H](CCC(N)=O)NC(=O)[C@H](CC(C)C)NC(=O)[C@H](C)NC(=O)[C@H](C)NC(=O)CNC(=O)[C@H](C)NC(=O)CNC(=O)[C@H](Cc1ccccc1)NC(C)=O)C(=O)N1CCC[C@H]1C(=O)N[C@@H](Cc1ccccc1)C(=O)N[C@@H](C)C(=O)N[C@@H](CCSC)C(=O)N[C@@H](CCC(N)=O)C(=O)N[C@@H](CCSC)C(=O)N[C@@H](C)C(=O)N[C@@H](C)C(=O)N[C@@H](CCCNC(=N)N)C(=O)N[C@@H](Cc1ccccc1)C(N)=O [PN19Y→A904] | 2-3 fold | > 100 µM | – | – | – | –
2 | CC[C@H](C)[C@H](NC(=O)[C@H](CCC(N)=O)NC(=O)[C@H](CC(C)C)NC(=O)[C@H](C)NC(=O)[C@H](C)NC(=O)CNC(=O)[C@H](C)NC(=O)CNC(=O)[C@H](Cc1ccccc1)NC(C)=O)C(=O)N1CCC[C@H]1C(=O)N[C@@H](Cc1ccccc1)C(=O)N[C@@H](C)C(=O)N[C@@H](CCSC)C(=O)N[C@@H](CCC(N)=O)C(=O)N[C@@H](CCSC)C(=O)N[C@@H](C)C(=O)N[C@@H](Cc1ccc(O)cc1)C(=O)N[C@@H](CCCNC(=N)N)C(=O)N[C@@H](Cc1ccccc1)C(N)=O [PN19] | – | > 100 µM | > 100 µM | binds to immobilized MPER25c | 410.9 M⁻¹ s⁻¹ | 48 fold
